Here are results for ten compounds from patent US5096929A, “2-amino-1,2,3,4-tetrahydronaphthalene derivatives with cardiovascular activity, process for their preparation and pharmaceutical compositions containing them” (Chiesi Farmaceutici S.p.A., priority 1989, dated 1992).

Molecules are shown by their SMILES. Structures can show the parent of a compound that is named as a salt. Where two headings read alike, the source gives them in different places.

The subject of one series is isolated rat left atrium. Put plainly: Isolated rat left atrium: inotropic activity (force). Particulars: for Activity in isolated rat left atrium and right atrium (in words): Table I and text; for EC50 / Emax: Rattus norvegicus; for EC50: read-out: EC50, left atrium (force); for Inotropic activity of diastereoisomeric mixture (in words): rat isolated left atrium. The protocol: (§1) The inotropic and chronotropic effects of compound (Ia) of the invention were determined in vitro using, respectively, isolated rat left atrium and right atrium.
Left atrium:inotrocic activity
The atria were subjected to a 0.5 g starting tension and suspended in a bath containing aerated Krebs-Henseleit j solution with 95% O2 and […] kept at 32.C. The preparation was stimulated at a 4 Hz frequency with pulses during 5 msec each. The contraction strength was detected by an isometric transducer and recorded on a microndynamometer.
(§2) The results were expressed as the percentage of the response obtained with a maximal dose ([…]) of isoproterenol which was determined at the beginning of the test. In Table 1 the potency (EC50=effective concentration inducing the 50% of the maximal effect) and the relative intrinsic activity (expressed as α and compared with that of isoproterenol, taken=1) are shown.
(§3) The effects of the compounds were evaluated in rat isolated atria according to the previously described method.
(§4) Table 3. Potency (EC50) and intrinsic activity (α;isoproterenol=1) on the isolated rat left atrium (Inotropic activity) and right atrium (chronotropic activity).

In series [1] the test system is isolated rat right atrium. Put plainly: Isolated rat right atrium: chronotropic activity (frequency). Particulars: Rattus norvegicus; for EC50: read-out: EC50, right atrium (frequency). As for the experimental part: as §1
Right atrium:chronotrpic activity
The preparation was prepared in the same way and under the same conditions as described above, but was not subjected to electric stimulation. Frequency was monitored by a cardiotachograph.
as §2, §3, §4

The next series relates to anesthetized dog. The experiment in a line: Anesthetized dog: cardiovascular activity. In kind it is in vivo, Beagle dog. As to conditions: anesthetized dog, i.v. As for the experimental part:
The interesting hemodynamic properties of CHF 1255 were confirmed in vivo in the anesthetized dog.
Anesthesized dog: cardiovascular activity
Beagle dogs were anesthetized with sodium pentobarbital (30 mg/kg iv) thoracotomized and monitored by recording cardiocirculatory parameters.
CHF 1255 and the reference drugs (amrinone and xamoterol) were administered i.v. in a bolus.
CHF 1255 at the doses of 0.3-1.3 μmoles/kg i.v. confirmed its activity in changing hemodynamic parameters.

The test system of another series is beta-1. Particulars: background art, cited from earlier work.
The target in series [2] is T1, beta-2 adrenergic receptors (Cavia porcellus, UniProt Q8K4Z4).
T1 construct: Trachea strips were isolated and prepared according to the method described by Emerson J and Machay D; from tissue; host or cells: guinea-pig isolated trachea strips
Put plainly: Isolated guinea-pig trachea: interactions with beta-2 adrenergic receptors (relaxation of carbachol contraction). As to conditions: for EC50: guinea-pig trachea, carbachol 3×10^-7 M. As for the experimental part: The selectivity of this interaction has been studied by evaluating the effects on beta-2 adrenergic receptors, in the guinea-pig isolated trachea, using CHF 1026 as reference compound.
Isolated guinea-pig trachea: interactions with beta-2 adrenergic receptors
Trachea strips were isolated and prepared according to the method described by Emerson J and Machay D in J Pharm Pharmacol 1979, 31, 798, immersed in Krebs-Henseleit solution (37° C., 95% O2 +5% CO2), subjected to an initial tension of 1 g and contracted with carbachol (3×10^-7 M).
Dose-response curves of CHF 1255 and CHF 1026 were recorded in the absence and in the presence of 10^-6 M propranolol, used as antagonist and added to the bath before the stimulation with carbachol.
The obtained results are shown in Table 2, expressed as potency (EC50 calculated from t he dose--response curve) and intrinsic activity (α, isoproternol=1).

Series [3] relates to arterial rat hind quarter. Put plainly: Rat perfused hind quarter; vasodilating action. As to conditions: for Emax: Rattus norvegicus; for ED40, K+ induced contraction / ED40, norepinephrine induced contraction / ED40, 5-HT induced contraction: dose decreasing contraction by 40%; for ED40, K+ induced contraction: K+ 40 mM; for ED40, 5-HT induced contraction: serotonin 5×10^-7 M. The protocol:
Rat perfused hind quarter; vasodilating action
The vasodilating effect of CHF 1255 has been evaluated in the arterial rat hind quarter perfused with Krebs-Henseleit solution at constant flow.
The increase of arterial resistance was induced by K^+ -enriched solution (40 mM), norepinephrine (5×10^-6 M) and serotonin (5×10^-7 M).
Papaverine and prazosin, powerful α-blocker vasodilator, were used as reference compounds.
ED40 =dose (moles) decreasing of 40% the contraction induced by the agonist. 100% was considered as the complete recduction of contraction.

Where [4] appears, read: Table 3, inotropic activity, rat left atrium.
Setting [5] is: Table 3, isoproterenol=1, read-out: α, left atrium (force).
[6] abbreviates: Table 3, chronotropic activity, rat right atrium.
[7] abbreviates: Table 3, isoproterenol=1, read-out: α, right atrium (frequency).
[8] abbreviates: Table I, isolated rat left atrium, 4 Hz stimulation, confidence limits in parentheses.
The mark [9] stands for this setting: Table I, isoproterenol taken=1, confidence limits in parentheses, read-out: α (intrinsic activity), left atrium (force).
Where [10] appears, read: Table I, isolated rat right atrium, confidence limits in parentheses.
The mark [11] stands for this setting: Table I, isoproterenol taken=1, confidence limits in parentheses, read-out: α (intrinsic activity), right atrium (frequency).

T1 sequence (Q8K4Z4 whole entry): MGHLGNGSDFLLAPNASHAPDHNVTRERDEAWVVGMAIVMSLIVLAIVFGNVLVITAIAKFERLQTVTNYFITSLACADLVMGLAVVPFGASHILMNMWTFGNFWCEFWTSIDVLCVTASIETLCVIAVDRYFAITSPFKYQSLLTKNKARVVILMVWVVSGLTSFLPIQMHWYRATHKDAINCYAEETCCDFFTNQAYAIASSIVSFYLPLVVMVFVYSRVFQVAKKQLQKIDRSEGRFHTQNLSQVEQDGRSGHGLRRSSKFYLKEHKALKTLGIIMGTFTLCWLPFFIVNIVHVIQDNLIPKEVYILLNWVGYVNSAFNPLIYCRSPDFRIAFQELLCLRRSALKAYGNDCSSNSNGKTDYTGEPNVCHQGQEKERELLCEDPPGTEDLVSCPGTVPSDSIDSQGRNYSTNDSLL

On to `COc1ccc2c(c1OC)CCC(NCC(O)c1ccc(O)cc1)C2` (centres unmarked) [CHF 1296], for which the “Activity in isolated rat left atrium and right atrium (in words)” value in the series on isolated rat left atrium is “completely inactive”.
As a reminder, the EC50 is the concentration needed to bring the measured effect to its halfway point. In the case of `O=C(NCCNCC(O)COc1ccc(O)cc1)N1CCOCC1` (centres unmarked) [xamoterol, xamoterol fumarate], the figures for the 50% effective concentration (EC50) (with isolated rat left atrium; in series [1]) were 4.98 nM and 4.71 nM, respectively. In addition, the Emax with isolated rat left atrium (read-out: α, left atrium (force)) amounted to 33%; in series [1] (read-out: α, right atrium (frequency)), 76%. The “Hemodynamic effects (in words)” value with anesthetized dog is given as “negligible”. The “Agonistic action relative to isoproterenol” value in the series on beta-1 (% that of isoproterenol) was 40%. Besides, the “Tolerability (in words)” value in the series on beta-1 (vs prenalterol) was “better tolerated”.
Take `Nc1cc(-c2ccncc2)c[nH]c1=O` [amrinone]: the EC50 is 26600 nM in the series with isolated rat left atrium (setting [4]) and 155000 nM in series [1] (setting [6]). Also, the Emax was found to be 29% in the series on isolated rat left atrium (setting [5]) and 147% in series [1] (setting [7]).
`CC(CCc1ccc(O)cc1)NC1CCc2cc(O)c(O)cc2C1` (centres unmarked) [CHF 1026, 2-[1-(4-hydroxyphenyl)-but-3-ylamino]-6,7-dihydroxy-1,2,3,4-tetrahydronaphthalene, reference compound]: the concentration giving a half-maximal response (EC50) in the series with isolated rat left atrium (setting [8]) came out at 900 nM; in series [1] (setting [10]), 130 nM; in series [2] (with 10^-6 M propranolol, read-out: EC50 in presence of propranolol) it was 130 µM; in series [2] (without propranolol, read-out: EC50 in absence of propranolol) it was 0.23 µM. The Emax with isolated rat left atrium (setting [9]) stood at 81%; in series [1] (setting [11]) it was 86%; in series [2] (guinea pig, isoproterenol=1, without propranolol, read-out: α in absence of propranolol), 99%. Moreover, the “Effect of propranolol on dose-response curve” value in series [2] (10^-6 M propranolol) is given as “parallelely shifted to the right, showing a competitive antagonistic action”. Further, the “α in presence of propranolol” value in series [2] (isoproterenol=1, with 10^-6 M propranolol) is listed as 0.94.
For `COc1ccc(Cc2nccc3cc(OC)c(OC)cc23)cc1OC` [papaverine, Papaverine], the “Activity against contraction by the different agents (in words)” value in series [3] (K+, norepinephrine, serotonin) is “same ED40 for the different experimental conditions”. Moreover, the Emax in series [3] (read-out: α (efficacy), 5-HT induced contraction) came to 90%; in series [3] (read-out: α (efficacy), K+ induced contraction), 90%; in series [3] (read-out: α (efficacy), norepinephrine induced contraction), 95%. The “ED40, K+ induced contraction” value in series [3] is 6.5e-08 mol. Moreover, in series [3] (norepinephrine 5×10^-6 M), the “ED40, norepinephrine induced contraction” value was determined as 4.5e-08 mol. Further, in series [3], the “ED40, 5-HT induced contraction” value was determined as 5e-08 mol.
For `COc1ccc2c(c1OC)CCC(NCC(O)c1cccc(O)c1)C2` (centres unmarked) [CHF 1297], the “Activity in isolated rat left atrium and right atrium (in words)” value with isolated rat left atrium was “completely inactive”.
For the compound `COc1ccc2c(c1OC)CCC(N[C@H](C)[C@@H](O)c1ccc(O)cc1)C2` (some centres unmarked) [CHF 1388, (αR,βS)-5,6-dimethoxy-2-[2-(4-hydroxyphenyl)-2-hydroxy-1-methylamino]-2-hydroxy-I-methylethylamino]--,2,3,4-tetrahydronaphthalene hydrochloride], the “Inotropic activity of diastereoisomeric mixture (in words)” value with isolated rat left atrium is given as “did not show any inotropic activity”. Also, the “Contribution to vasodilating activity of CHF 1255” value in series [3] was “vasodilating activity of CHF 1255 is mainly due to CHF 1388”.
`COc1cc2nc(N3CCN(C(=O)c4ccco4)CC3)nc(N)c2cc1OC` [prazosin]: the Emax in series [3] (100% = complete reduction, norepinephrine 5×10^-6 M, read-out: α (efficacy), norepinephrine induced contraction) is 96%. For the same compound, in series [3], the “ED40, K+ induced contraction” value is “inactive” and the “ED40, 5-HT induced contraction” value is “inactive”. Also, in series [3] (norepinephrine 5×10^-6 M), the “ED40, norepinephrine induced contraction” value was determined as 1.5e-11 mol.
In the case of `COc1ccc2c(c1OC)CCC(N[C@@H](C)[C@H](O)c1ccc(O)cc1)C2` (some centres unmarked) [CHF 1389, (αS, βR)-5,6-Dimethoxy-2-[2-(4-hydroxyphenyl)-2-hydroxy-1-methylethylemino]-1,2,3,4-tetrahydronaphthalene hydrochloride], in the series with isolated rat left atrium, the “Inotropic activity of diastereoisomeric mixture (in words)” value was “as effective as CHF 1255 in the rat isolated left atrium”.
With `NCCc1ccc(O)c(O)c1` [dopamine], the EC50 was determined as 1190 nM with isolated rat left atrium (setting [4]), 1200 nM in the series with isolated rat left atrium (setting [8]), 1890 nM in series [1] (setting [6]) and 1900 nM in series [1] (setting [10]). In addition, the Emax in the series with isolated rat left atrium (setting [5]) turned out to be 95%; in the series on isolated rat left atrium (setting [9]), 95%; in series [1] (setting [7]), 106%; in series [1] (setting [11]), 106%.
